Reference: PubChem BioAssay AID1963856 (Molecular Pharmacology Branch, DTP, NCI, 2024)

Test system: LG0567-F671-PDC KRAS tumor spheroid viability
Experiment: Anticancer human tumor LG0567-F671-PDC patient-derived lung adenocarcinoma cell line growth inhibition [KRAS2]
Conditions: spheroids with HUVEC and MSC; for viability, T/C: stronger effect = lower value
Procedure, shortened: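 Combination screen of spheroid viability in tumor-cell co-cultures with endothelial (HUVEC) and mesenchymal stem cell stroma. Each agent was tested in half-log dilutions, topping at clinical Cmax or at 10 microM without a known Cmax.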

[1] = curve of first compound, second compound 0.1 µM
[2] = curve of first compound, second compound 0.316 µM
[3] = curve of first compound, second compound 1 µM
[4] = curve of first compound, second compound 3.16 µM
[5] = curve of first compound, second compound 10 µM
[6] = second compound 0.1 µM, first compound 0.0316 µM
[7] = second compound 0.1 µM, first compound 0.1 µM
[8] = second compound 0.1 µM, first compound 0.316 µM
[9] = second compound 0.1 µM, first compound 1 µM
[10] = second compound 0.1 µM, first compound 3.16 µM
[11] = second compound 0.1 µM, first compound 10 µM
[12] = second compound 0.316 µM, first compound 0.0316 µM
[13] = second compound 0.316 µM, first compound 0.1 µM
[14] = second compound 0.316 µM, first compound 0.316 µM
[15] = second compound 0.316 µM, first compound 1 µM
[16] = second compound 0.316 µM, first compound 3.16 µM
[17] = second compound 0.316 µM, first compound 10 µM
[18] = second compound 1 µM, first compound 0.0316 µM
[19] = second compound 1 µM, first compound 0.1 µM
[20] = second compound 1 µM, first compound 0.316 µM
[21] = second compound 1 µM, first compound 1 µM
[22] = second compound 1 µM, first compound 3.16 µM
[23] = second compound 1 µM, first compound 10 µM
[24] = second compound 3.16 µM, first compound 0.0316 µM
[25] = second compound 3.16 µM, first compound 0.1 µM
[26] = second compound 3.16 µM, first compound 0.316 µM
[27] = second compound 3.16 µM, first compound 1 µM
[28] = second compound 3.16 µM, first compound 3.16 µM
[29] = second compound 3.16 µM, first compound 10 µM
[30] = second compound 10 µM, first compound 0.0316 µM
[31] = second compound 10 µM, first compound 0.1 µM
[32] = second compound 10 µM, first compound 0.316 µM
[33] = second compound 10 µM, first compound 1 µM
[34] = second compound 10 µM, first compound 3.16 µM
[35] = second compound 10 µM, first compound 10 µM
[36] = second compound 0.1 µM, first compound 0.01 µM
[37] = second compound 0.316 µM, first compound 0.01 µM
[38] = second compound 1 µM, first compound 0.01 µM
[39] = second compound 3.16 µM, first compound 0.01 µM
[40] = second compound 10 µM, first compound 0.01 µM
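Also: drug exposure lasted seven days after spheroids formed for three days.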
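For viability, T/C in this document: 100% = DMSO vehicle control viability.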

Row | SMILES | IC50 [1] | IC50 [2] | IC50 [3] | IC50 [4] | IC50 [5] | viability, T/C [6] | viability, T/C [7] | viability, T/C [8] | viability, T/C [9] | viability, T/C [10] | viability, T/C [12] | viability, T/C [13] | viability, T/C [14] | viability, T/C [15] | viability, T/C [16] | viability, T/C [18] | viability, T/C [19] | viability, T/C [20] | viability, T/C [21] | viability, T/C [22] | further results
1 | COC(=O)c1ccc2c(C(=Nc3ccc(N(C)C(=O)CN4CCN(C)CC4)cc3)c3ccccc3)c(O)[nH]c2c1 + COc1cc2nc(C)nc(NC(C)c3cc(N)cc(C(F)(F)F)c3)c2cc1OC1CCOC1 | > 10000 nM | > 10000 nM | > 10000 nM | 4080 nM | 1590 nM | 112% | 76.2% | 65.9% | 85.8% | 83.8% | 60.2% | 51.6% | 58.8% | 71.2% | 61.7% | 72.3% | 66.3% | 61.5% | 71.1% | 66.4% | viability, T/C [11]: 69.5%; viability, T/C [17]: 64.1%; viability, T/C [23]: 61.4%; viability, T/C [24]: 73.8%; viability, T/C [25]: 75.2%; viability, T/C [26]: 66.7%; viability, T/C [27]: 71.8%; viability, T/C [28]: 64.2%; viability, T/C [29]: 0.24%; viability, T/C [30]: 78.7%; viability, T/C [31]: 81.1%; viability, T/C [32]: 82.3%; viability, T/C [33]: 79%; viability, T/C [34]: 6.56%; viability, T/C [35]: 1.03%
2 | COc1cc(Nc2ncc3c(n2)-c2ccc(Cl)cc2C(c2c(F)cccc2OC)=NC3)ccc1C(=O)O + CNCc1ccccc1-c1csc(C(C)Nc2nc(C)nc3cc(OC)c(OC)cc23)c1 | 3000 nM | 343 nM | 262 nM | < 31.6 nM | < 31.6 nM | 72% | 62% | 58.1% | 60.6% | 51.4% | 56.3% | 54.3% | 48.2% | 45.6% | 42.4% | 52.4% | 53.4% | 47% | 48.2% | 37.8% | viability, T/C [11]: 37.8%; viability, T/C [17]: 32%; viability, T/C [23]: 29%; viability, T/C [24]: 12.8%; viability, T/C [25]: 16.8%; viability, T/C [26]: 14%; viability, T/C [27]: 3.3%; viability, T/C [28]: 0.97%; viability, T/C [29]: 1.05%; viability, T/C [30]: 0.9%; viability, T/C [31]: 0.24%; viability, T/C [32]: 0.13%; viability, T/C [33]: 0.43%; viability, T/C [34]: 0.12%; viability, T/C [35]: 1.01%
3 | Cn1ncnc1[C@H]1c2n[nH]c(=O)c3cc(F)cc(c23)N[C@@H]1c1ccc(F)cc1 |  |  |  |  |  |  |  |  |  |  |  |  |  |  |  |  |  |  |  |  | viability, T/C (compound 0.000316 µM): 99.5% [middle of 5 runs]; viability, T/C (compound 0.001 µM): 106% [middle of 5 runs]; viability, T/C (compound 0.00316 µM): 101% [middle of 5 runs]; viability, T/C (compound 0.01 µM): 102% [middle of 5 runs]; viability, T/C (compound 0.0316 µM): 104% [middle of 5 runs]; viability, T/C (compound 0.1 µM): 90.9% [middle of 5 runs]; IC50 (curve of compound): > 100 nM
4 | CC(C)n1nc(-c2ccc3oc(N)nc3c2)c2c(N)ncnc21 |  |  |  |  |  |  |  |  |  |  |  |  |  |  |  |  |  |  |  |  | viability, T/C (compound 0.000316 µM): 98.5% [middle of 5 runs]; viability, T/C (compound 0.001 µM): 89.3% [middle of 5 runs]
5 | CC(=O)OC12COC1CC(O)C1(C)C(=O)C(O)C3=C(C)C(OC(=O)C(O)C(NC(=O)OC(C)(C)C)c4ccccc4)CC(O)(C(OC(=O)c4ccccc4)C21)C3(C)C (stereo not given) + CNCc1ccccc1-c1csc(C(C)Nc2nc(C)nc3cc(OC)c(OC)cc23)c1 | < 10 nM | < 10 nM | < 10 nM | < 10 nM | < 10 nM | 46.4% | 43.9% | 47.1% | 61.4% | 53.6% | 34.3% | 34.4% | 42.4% | 39.5% | 40% | 40.9% | 42.2% | 48.3% | 48.1% | 42.1% | viability, T/C [36]: 48.5%; viability, T/C [37]: 35.6%; viability, T/C [38]: 44%; viability, T/C [39]: 24%; viability, T/C [24]: 0.94%; viability, T/C [25]: 0.36%; viability, T/C [26]: 0.26%; viability, T/C [27]: 0.19%; viability, T/C [28]: 37.5%; viability, T/C [40]: 0.6%; viability, T/C [30]: 0.13%; viability, T/C [31]: 0.43%; viability, T/C [32]: 0.19%; viability, T/C [33]: 42.7%; viability, T/C [34]: 0.85%
6 | COc1cc(OC)cc(N(CCNC(C)C)c2ccc3ncc(-c4cnn(C)c4)nc3c2)c1 |  |  |  |  |  |  |  |  |  |  |  |  |  |  |  |  |  |  |  |  | viability, T/C (compound 0.316 µM): 92.2% [middle of 5 runs]
7 | CC1COCCN1c1cc(-c2ccnn2C)c2ccnc(-c3ccn[nH]3)c2n1 (stereo not given) + CC1OCC2(CCN(c3cnc(Sc4ccnc(N)c4Cl)c(N)n3)CC2)C1N | < 10 nM | < 10 nM | < 10 nM | < 10 nM | < 10 nM | 41.8% | 32% | 36.3% | 41.7% | 48.2% | 31.8% | 24.9% | 18.5% | 21.6% | 27.5% | 23.4% | 19% | 15.3% | 10.2% | 9.22% | viability, T/C [36]: 59.9%; viability, T/C [37]: 39%; viability, T/C [38]: 28.2%; viability, T/C [39]: 23%; viability, T/C [24]: 16.3%; viability, T/C [25]: 10.9%; viability, T/C [26]: 7.95%; viability, T/C [27]: 8.32%; viability, T/C [28]: 3.11%; viability, T/C [40]: 14.4%; viability, T/C [30]: 12%; viability, T/C [31]: 7.07%; viability, T/C [32]: 3.98%; viability, T/C [33]: 2.99%; viability, T/C [34]: 1.57%
8 | CC1(C)CCC(CN2CCN(c3ccc(C(=O)NS(=O)(=O)c4ccc(NCC5CCOCC5)c([N+](=O)[O-])c4)c(Oc4cnc5[nH]ccc5c4)c3)CC2)=C(c2ccc(Cl)cc2)C1 + CNCc1ccccc1-c1csc(C(C)Nc2nc(C)nc3cc(OC)c(OC)cc23)c1 | 1630 nM | 1470 nM | 1420 nM | < 31.6 nM | < 31.6 nM | 72.6% | 68.1% | 70.6% | 71.3% | 22% | 69.5% | 63.9% | 61.2% | 70.2% | 17.9% | 69.4% | 77.7% | 62% | 64.3% | 18.3% | viability, T/C [11]: 10.7%; viability, T/C [17]: 8.6%; viability, T/C [23]: 2.9%; viability, T/C [24]: 0.33%; viability, T/C [25]: 0.44%; viability, T/C [26]: 0.44%; viability, T/C [27]: 2.14%; viability, T/C [28]: 1.73%; viability, T/C [29]: 0.34%; viability, T/C [30]: 0.43%; viability, T/C [31]: 0.89%; viability, T/C [32]: 0.6%; viability, T/C [33]: 0.39%; viability, T/C [34]: 2.18%; viability, T/C [35]: 0.44%
